# Results published in EPA's ToxValDB 9.5 (doi:10.2903/j.efsa.2010.1592).
# Assays:
# Anas platyrhynchos = settings: oral, mortality
# Apis mellifera = settings: acute; duration: 48 hours; dermal; mortality
# Canidae = settings: oral, Dog Other, histopathology: nonneoplastic
# Daphnia magna = settings: chronic/long-term; duration: 21 days; reproduction
# Oncorhynchus mykiss = settings: acute; duration: 96 hours; mortality
# Pimephales promelas = settings: chronic/long-term; duration: 32 days; other
# Tagia sp. = settings: acute; duration: 14 days; mortality
# Typhlodromus pyri = experiment: LR50; higher = less toxic; settings: not reported; mortality
structure (smiles),measurement,setting,value
COc1cc(OC)n2nc(S(=O)(=O)Nc3c(Cl)ccc(C)c3Cl)nc2n1 [Metosulam],LD50,"Anas platyrhynchos; acute, unspecified",> 2000 mg/kg
same,LC50,"Anas platyrhynchos; short-term, feed",> 1920 mg/kg-day
same,LD50,Apis mellifera,> 100 µg/piece
same,NOAEL,"Canidae; chronic, duration: 1 years",10 mg/kg-day
same,NOAEL,"Canidae; short-term, duration: 2 weeks, diet",25 mg/kg-day
same,LC50,"Colinus virginianus; acute, oral, diet, mortality",> 1400 mg/kg-day
same,LD50,"Colinus virginianus; acute, oral, mortality",> 2250 mg/kg
same,NOEC,Colinus virginianus; reproduction developmental,22 mg/kg-day
same,NOEC,Daphnia magna,2.5 mg/L
same,LC50,Oncorhynchus mykiss,> 29.3 µg/mL
same,NOEC,Pimephales promelas,4.24 mg/L
same,LD50,"Rattus norvegicus; acute, oral, mortality",> 5000 mg/kg
same,NOAEL,"Rattus norvegicus; chronic, duration: 2 years, histopathology: nonneoplastic",5 mg/kg-day
same,NOEL,"Rattus norvegicus; chronic, histopathology: nonneoplastic",30 mg/kg-day
same,LC50,Tagia sp.,> 1000 mg/kg
same,LR50,Typhlodromus pyri,> 40 mg/kg
